PubChem BioAssay AID1845203 (Molecular Pharmacology Branch, DTP, NCI, 2023)

System: G-401 tumor spheroids, viability % test/control
Test: Anticancer human tumor G-401 cell line growth inhibition;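 note: spheroids exposed to compound for 7 days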;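 for viability, T/C: 100% = DMSO vehicle-treated spheroids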
Conditions: spheroids with HUVEC and MSC; for IC50: curve of first compound; for viability, T/C: stronger effect = lower value
Description: Multicellular complex tumor spheroid response to DNA repair inhibitors in combination with DNA-damaging drugs
This study explores the anticancer activities of DNA-damaging drugs and inhibitors of DNA damage repair, both as single agents and in combinations. Complex tumor spheroids comprised of malignant cells, endothelial cells and mesenchymal stem cells served as an in vitro model for human solid tumors. This model system incorporates physiologically relevant features and patient-derived or established malignant cell lines with clinically relevant genetic alterations from many tumor types. Twenty-six patient-derived or established malignant cell lines were evaluated representing sarcoma, melanoma, small cell lung cancer (SCLC), non-small cell lung cancer (NSCLC), as well as bladder, ovarian and pancreatic cancers. The concentration ranges selected for each drug and investigational agent were based upon clinically achievable concentrations if the clinical Cmax of the agent was known.
Compounds. The drugs and compounds olaparib (NSC753686), talazoparib (NSC767125), berzosertib (NSC777718), elimusertib (NSC800525), nedisertib (NSC802822), VX-984 (NSC792969), AZD-1390 (NSC803789), temozolomide (NSC362856), topotecan (NSC609699), trabectedin (NSC813783), staurosporine (NSC755774), and gemcitabine (NSC613327) were obtained from the National Cancer Institute (NCI) Developmental Therapeutics Program Chemical Repository. The FDA-approved anticancer drug set is available from the Developmental Therapeutics Program at https://dtp.cancer.gov/organization/dscb/obtaining/available_plates.htm. […] The stock solutions were prepared in dimethyl sulfoxide (DMSO, Sigma-Aldrich, St. Louis, MO, cat. D2650) at 400-fold the tested concentration and stored at -70 degrees C. Prior to their use, the stock solutions were diluted in fresh medium and the final DMSO concentration in the assay was 0.25% (v/v). All drugs and investigational agents were tested over a range starting from a high concentration at or near the clinical Cmax and decreasing in half-log increments. If the clinical Cmax for an agent had not been determined, the highest concentration tested was 10 microM.
Cell Lines. The patient-derived cancer cell (PDC) lines: 156681-154-R-J1-PDC, 283228-195-R-J1-PDC, 287954-098-R-J1-PDC, 292921-168-R-J2-PDC, 349418-098-R-PDC, 425362-245-T-J1-PDC, 556581-035-R-J1-PDC, and BL0293-F563-PDC were received from the NCI Patient-Derived Models Repository (PDMR, https://pdmr.cancer.gov). The established cell lines HS-SY-2 (RRID:CVCL_8719), MPNST, and SYO-1 (RRID:CVCL_7146) were obtained from the Sloan Kettering Institute. The alveolar soft parts sarcoma cell line ASPS-1 (RRID:CVCL_S738) was established at the NCI and grown from internal seed stocks. The following established cell lines were purchased from the American Type Culture Collection (ATCC, Manassas, VA): G-401 (ATCC, cat. CRL-1441, RRID:CVCL_0270), SW982 (ATCC, cat. HTB-93, RRID:CVCL_1734), VA-ES-BJ (ATCC, cat. CRL-2138, RRID:CVCL_1785), NCI-H719 (ATCC, cat. CRL-5837, RRID:CVCL_1582), NCI-H196 (ATCC, cat. CRL-5823, RRID:CVCL_1509), NCI-H841 (ATCC, cat. CRL-5845, RRID:CVCL_1595), NCI-H1618 (ATCC, cat. CRL-5879, RRID:CVCL_1480), NCI-H1876 (ATCC, cat. CRL-5902, RRID:CVCL_1503), DMS 114 (ATCC, cat. CRL-2066; RRID:CVCL_1174), NCI-H211 (ATCC, cat. CRL-5824; RRID:CVCL_1529), and SW 1271 (ATCC, cat. CRL-2177, RRID:CVCL_1716). The small cell lung cancer cell line COR-L88 was purchased from Sigma-Aldrich (cat. 92031917-1VL, RRID:CVCL_1141). The non-small cell lung cancer cell lines NCI-H226 (RRID:CVCL_1544) and NCI-H322M (RRID:CVCL_1557) were established at the NCI and grown from internal seed stocks. Pooled donor human umbilical vein endothelial cells (HUVEC, Lonza, cat. CC-2519) and human mesenchymal stem cells (hMSC, Lonza, cat. PT-2501) were purchased from Lonza (Walkersville, MD).
Cell Culture. All cells were maintained in an incubator at 37 degrees C and 5% CO2 with 95% humidity. […]

[1] = second compound 0.003 µM, first compound 0.00949 µM
[2] = second compound 0.003 µM, first compound 0.03 µM
[3] = second compound 0.003 µM, first compound 0.0949 µM
[4] = second compound 0.003 µM, first compound 0.3 µM
[5] = second compound 0.003 µM, first compound 0.949 µM
[6] = second compound 0.003 µM, first compound 3 µM
[7] = second compound 0.00949 µM, first compound 0.00949 µM
[8] = second compound 0.00949 µM, first compound 0.03 µM
[9] = second compound 0.00949 µM, first compound 0.0949 µM
[10] = second compound 0.00949 µM, first compound 0.3 µM
[11] = second compound 0.00949 µM, first compound 0.949 µM
[12] = second compound 0.00949 µM, first compound 3 µM
[13] = second compound 0.03 µM, first compound 0.00949 µM
[14] = second compound 0.03 µM, first compound 0.03 µM
[15] = second compound 0.03 µM, first compound 0.0949 µM
[16] = second compound 0.03 µM, first compound 0.3 µM
[17] = second compound 0.03 µM, first compound 0.949 µM
[18] = second compound 0.03 µM, first compound 3 µM
[19] = second compound 0.0949 µM, first compound 0.00949 µM
[20] = second compound 0.0949 µM, first compound 0.03 µM
[21] = second compound 0.0949 µM, first compound 0.0949 µM
[22] = second compound 0.0949 µM, first compound 0.3 µM
[23] = second compound 0.0949 µM, first compound 0.949 µM
[24] = second compound 0.0949 µM, first compound 3 µM
[25] = second compound 0.3 µM, first compound 0.00949 µM
[26] = second compound 0.3 µM, first compound 0.03 µM
[27] = second compound 0.3 µM, first compound 0.0949 µM
[28] = second compound 0.3 µM, first compound 0.3 µM
[29] = second compound 0.3 µM, first compound 0.949 µM
[30] = second compound 0.3 µM, first compound 3 µM

CNCc1ccc(-c2cc(-c3nc(-c4ccc(S(=O)(=O)C(C)C)cc4)cnc3N)on2)cc1 + CC[C@@]1(O)C(=O)OCc2c1cc1n(c2=O)Cc2cc3c(CN(C)C)c(O)ccc3nc2-1
IC50 (second compound 0.003 µM): 326 nM | IC50 (second compound 0.00949 µM): < 9.49 nM | IC50 (second compound 0.03 µM): < 9.49 nM | IC50 (second compound 0.0949 µM): < 9.49 nM | IC50 (second compound 0.3 µM): < 9.49 nM | viability, T/C [1]: 82.9% | viability, T/C [2]: 88% | viability, T/C [3]: 81.7% | viability, T/C [4]: 50.5% | viability, T/C [5]: 30.2% | viability, T/C [6]: 21.1% | viability, T/C [7]: 43.9% | viability, T/C [8]: 51.2% | viability, T/C [9]: 39.5% | viability, T/C [10]: 21.5% | viability, T/C [11]: 16.5% | viability, T/C [12]: 17.1% | viability, T/C [13]: 21% | viability, T/C [14]: 15.8% | viability, T/C [15]: 17.9% | viability, T/C [16]: 19.5% | viability, T/C [17]: 20.8% | viability, T/C [18]: 18.1% | viability, T/C [19]: 8.75% | viability, T/C [20]: 8.82% | viability, T/C [21]: 12.4% | viability, T/C [22]: 16.4% | viability, T/C [23]: 16.9% | viability, T/C [24]: 13.3% | viability, T/C [25]: 4.81% | viability, T/C [26]: 6.19% | viability, T/C [27]: 7.23% | viability, T/C [28]: 9.53% | viability, T/C [29]: 9.78% | viability, T/C [30]: 4.97%

Cc1sc2c(c1C)C(c1ccc(Cl)cc1)=NC(CC(=O)Nc1ccc(O)cc1)c1nnc(C)n1-2 (stereo not given) + CC[C@@]1(O)C(=O)OCc2c1cc1n(c2=O)Cc2cc3c(CN(C)C)c(O)ccc3nc2-1
IC50 (second compound 0.003 µM): 46.5 nM | IC50 (second compound 0.00949 µM): < 9.49 nM | IC50 (second compound 0.03 µM): < 9.49 nM | IC50 (second compound 0.0949 µM): < 9.49 nM | IC50 (second compound 0.3 µM): < 9.49 nM | viability, T/C [1]: 72% | viability, T/C [2]: 57.4% | viability, T/C [3]: 38.5% | viability, T/C [4]: 25.3% | viability, T/C [5]: 15.4% | viability, T/C [6]: 6.8% | viability, T/C [7]: 38.3% | viability, T/C [8]: 40.3% | viability, T/C [9]: 22.1% | viability, T/C [10]: 17% | viability, T/C [11]: 6.36% | viability, T/C [12]: 3.51% | viability, T/C [13]: 13.9% | viability, T/C [14]: 11.6% | viability, T/C [15]: 9.1% | viability, T/C [16]: 6.33% | viability, T/C [17]: 3.18% | viability, T/C [18]: 1.34% | viability, T/C [19]: 7.96% | viability, T/C [20]: 5.07% | viability, T/C [21]: 4.63% | viability, T/C [22]: 2.93% | viability, T/C [23]: 1.21% | viability, T/C [24]: 0.82% | viability, T/C [25]: 4.4% | viability, T/C [26]: 3.79% | viability, T/C [27]: 3.23% | viability, T/C [28]: 1.9% | viability, T/C [29]: 1.03% | viability, T/C [30]: 0.5%
